{"source": "patent US20100298144A1", "about": "“HERBICIDAL COMBINATION” (BAYER CROPSCIENCE AG, priority 2008, published 2010)", "system": "Polygonum convolvulus", "experiment": "Post-emergence action against weeds, greenhouse pot test, visual scoring", "assay_type": "in vivo", "conditions": "11 days after application, 0%=no control, 100%=complete control", "method": "Seeds or rhizome pieces of monocotyledonous and dicotyledonous weeds were placed in sandy loam in plastic pots, covered with soil and cultivated in a greenhouse under good growth conditions. Three weeks after sowing, the test plants were treated at the 2-4 leaf stage. The compounds according to the invention, formulated as wettable powders or as emulsion concentrates, were sprayed onto the green parts of the plants at various dosages using a water application rate of from 100 to 800 I/ha (converted). After the test plants had been left to stand in the greenhouse for 10 to 28 days under optimum growth conditions, the effect of the preparations was scored visually in comparison to untreated controls.\n0%=no control 100%=complete control"}
{"molecule": "sodium salt of 2-iodo-N-[(4-methoxy-6-methyl-1,3,5-triazin-2-yl)carbamoyl]benzenesulfonamide [Compound A-2]", "values": [{"measurement": "Polygonum convolvulus Control in %", "setting": "Table 1, 2.5 g of ai/ha", "result": 10, "unit": "%"}, {"measurement": "Polygonum convolvulus Control in %", "setting": "Table 2, 2.5 g of ai/ha", "result": 20, "unit": "%"}]}
{"molecule": "glyphosate-ammonium [Compound B1-15]", "values": [{"measurement": "Polygonum convolvulus Control in %", "setting": "Table 2, 360 g of ai/ha", "result": 55, "unit": "%"}]}
{"molecule": "CP(=O)(O)CCC(N)C(=O)O", "note": "(stereo not shown) [Compound B1-8, glufosinate-ammonium]", "values": [{"measurement": "Polygonum convolvulus Control in %", "setting": "Table 1, 150 g of ai/ha", "result": 20, "unit": "%"}]}
